Laboratory results reported in paper PMC12298351, “Novel 3,19-(N-Phenyl-3-(4-fluorophenyl)-pyrazole) Acetal of Andrographolide Promotes Cell Cycle Arrest and Apoptosis in MDA-MB-231 Breast Cancer Cells” (Pharmaceuticals, 2025).

What was measured:
M14 = assay type: cell-based; conditions: M14, Melanoma
TK-10 = assay type: cell-based; conditions: TK-10, Renal
K-562 = conditions: K-562, Leukemia
RPMI-8226 = conditions: RPMI-8226, Leukemia
KM12 = conditions: KM12, Colon
SW-620 = conditions: SW-620, Colon
SF-268 = conditions: SF-268, CNS
U251 = conditions: U251, CNS
SK-MEL-28 = conditions: SK-MEL-28, Melanoma
UACC-257 = conditions: UACC-257, Melanoma
UACC-62 = conditions: UACC-62, Melanoma
IGROV1 = conditions: IGROV1, Ovarian
OVCAR-3 = conditions: OVCAR-3, Ovarian
OVCAR-8 = conditions: OVCAR-8, Ovarian
SK-OV-3 = conditions: SK-OV-3, Ovarian
A498 = conditions: A498, Renal
CAKI-1 = conditions: CAKI-1, Renal
RXF 393 = conditions: RXF 393, Renal
UO-31 = conditions: UO-31, Renal
DU-145 = conditions: DU-145, Prostate
MCF7 = conditions: MCF7, Breast
MDA-MB-468 = conditions: MDA-MB-468, Breast
[1] = read-out: 50% lethal concentration (LC50)
[2] = read-out: 50% lethal concentration (LC50), Leukemia
[3] = read-out: 50% lethal concentration (LC50), Non-Small Cell Lung
[4] = read-out: 50% lethal concentration (LC50), Renal

## C=C1CCC2C3(C)COC(c4cn(-c5ccccc5)nc4-c4ccc(OC)cc4)OC3CCC2(C)C1CC=C1C(=O)OCC1O (stereo not shown) [1j]
M14
  GI50: 1.72 µM
  Total growth inhibition (TGI): 3.54 µM
TK-10
  GI50: 1.95 µM
  Total growth inhibition (TGI): 4.13 µM
TK-10; [1]
  CC50: 8.77 µM
CCRF-CEM; Leukemia
  GI50: 0.64 µM
  Total growth inhibition (TGI): > 100 µM
CCRF-CEM; [2]
  CC50: > 100 µM
K-562
  GI50: 1.9 µM
K-562; [1]
  CC50: > 100 µM
RPMI-8226
  GI50: 0.92 µM
  Total growth inhibition (TGI): > 100 µM
RPMI-8226; [1]
  CC50: > 100 µM
SR; Leukemia
  GI50: 1.74 µM
  Total growth inhibition (TGI): 5.21 µM
SR; [2]
  CC50: > 100 µM
A549/ATCC; Non-Small Cell Lung
  Total growth inhibition (TGI): 7.29 µM
A549/ATCC; Non-Small-Cell Lung
  GI50: 2.39 µM
A549/ATCC; [3]
  CC50: 62.2 µM
EKVX; Non-Small Cell Lung
  Total growth inhibition (TGI): 4.49 µM
EKVX; Non-Small-Cell Lung
  GI50: 1.96 µM
EKVX; [3]
  CC50: > 100 µM
HOP-62; HOP-62, Non-Small Cell Lung
  Total growth inhibition (TGI): 10.4 µM
HOP-62; HOP-62, Non-Small-Cell Lung
  GI50: 2.65 µM
HOP-62; read-out: 50% lethal concentration (LC50), HOP-62, Non-Small Cell Lung
  CC50: 86.3 µM
NCI-H460; NCI-H460, Non-Small Cell Lung
  Total growth inhibition (TGI): 3.5 µM
NCI-H460; NCI-H460, Non-Small-Cell Lung
  GI50: 1.74 µM
NCI-H460; read-out: 50% lethal concentration (LC50), NCI-H460, Non-Small Cell Lung
  CC50: 7.01 µM
KM12
  GI50: 1.66 µM
  Total growth inhibition (TGI): 3.31 µM
SW-620
  GI50: 1.69 µM
  Total growth inhibition (TGI): 3.8 µM
SW-620; [1]
  CC50: 8.55 µM
SF-268
  GI50: 1.67 µM
  Total growth inhibition (TGI): 3.6 µM
SF-268; [1]
  CC50: 7.77 µM
U251
  GI50: 1.66 µM
  Total growth inhibition (TGI): 3.1 µM
LOX IMVI; Melanoma
  GI50: 1.57 µM
  Total growth inhibition (TGI): 2.93 µM
LOX IMVI; read-out: 50% lethal concentration (LC50), Melanoma
  CC50: 5.47 µM
SK-MEL-28
  GI50: 1.94 µM
  Total growth inhibition (TGI): 3.69 µM
SK-MEL-28; [1]
  CC50: 7.01 µM
UACC-257
  GI50: 1.64 µM
  Total growth inhibition (TGI): 3.28 µM
UACC-62
  GI50: 1.91 µM
  Total growth inhibition (TGI): 4.26 µM
UACC-62; [1]
  CC50: 9.48 µM
IGROV1
  GI50: 1.37 µM
  Total growth inhibition (TGI): 2.99 µM
IGROV1; [1]
  CC50: 6.52 µM
OVCAR-3
  GI50: 1.5 µM
  Total growth inhibition (TGI): 2.96 µM
OVCAR-3; [1]
  CC50: 5.84 µM
OVCAR-8
  GI50: 1.35 µM
  Total growth inhibition (TGI): 2.84 µM
OVCAR-8; [1]
  CC50: 5.97 µM
NCI/ADR-RES; Ovarian
  GI50: 1.94 µM
  Total growth inhibition (TGI): 4.41 µM
NCI/ADR-RES; read-out: 50% lethal concentration (LC50), Ovarian
  CC50: > 100 µM
SK-OV-3
  GI50: 3.44 µM
  Total growth inhibition (TGI): 23.9 µM
SK-OV-3; [1]
  CC50: > 100 µM
A498
  GI50: 2.63 µM
  Total growth inhibition (TGI): 11.3 µM
A498; [1]
  CC50: 39.2 µM
ACHN; Renal
  GI50: 1.52 µM
  Total growth inhibition (TGI): 2.87 µM
ACHN; [4]
  CC50: 5.41 µM
CAKI-1
  GI50: 1.26 µM
  Total growth inhibition (TGI): 2.64 µM
CAKI-1; [1]
  CC50: 5.54 µM
RXF 393
  GI50: 0.89 µM
  Total growth inhibition (TGI): 2.2 µM
RXF 393; [1]
  CC50: 4.98 µM
SN12C; Renal
  GI50: 1.98 µM
  Total growth inhibition (TGI): 5.94 µM
SN12C; [4]
  CC50: 65.1 µM
UO-31
  GI50: 1.22 µM
  Total growth inhibition (TGI): 2.54 µM
UO-31; [1]
  CC50: 5.25 µM
DU-145
  GI50: 2.04 µM
  Total growth inhibition (TGI): 4.94 µM
DU-145; [1]
  CC50: 16.4 µM
MCF7
  GI50: 1.46 µM
  Total growth inhibition (TGI): > 100 µM
MCF7; [1]
  CC50: > 100 µM
MDA-MB-468
  GI50: 1.71 µM
  Total growth inhibition (TGI): 3.25 µM
MDA-MB-468; [1]
  CC50: 6.16 µM
